From patent US8273754B2, “Substituted 1H-pyrazolo[3,4-D]pyrimidine-6-amine compounds” (ArQule, Inc., priority 2008, dated 2012)
Read-outs that look alike come from different tables or passages of the source.

Tested on: cancer cells
Assay: MTS cell growth inhibition assay (72 hours)
Format: cell-based
Method: Cells were maintained at 37° C., 5% CO2 in DMEM media supplemented with 1% fetal bovine serum, penicillin/streptomycin and fungizone (Invitrogen). Cells were seeded into 96-well tissue culture plates at 3000 per well and cultured at 37° C. for 18 hours. Test compounds were dissolved and diluted to 300× in DMSO then further diluted 1:40 in DMEM before addition to cells (1:7.5 dilution). Cells were incubated with test compounds for 72 hours followed by incubation with tetrazolium compound (3-(4,5-dimethylthiazol-2-yl)-5-(3-carboxymethoxyphenyl)-2-(4-sulfophenyl)-2H-tetrazolium, inner salt; MTS) and the electron coupling reagent, phenazine methosulfate (PMS) for 4 hours. […] The ability of compounds to inhibit cell growth in this assay is correlated with the reduction of dehydrogenase enzyme activity found in metabolically active cells. The measurement of the absorbance of the formazan was assessed using an ENVISION™ (Perkin Elmer) microplate reader at 492 nm. The calculated IC50 value is the concentration of the test compound that causes a 50% decrease in the absorbance. […] A=>79% inhibition, B=>50 to 79% inhibition, C=<50% inhibition.

[1] = Homo sapiens, DLD-1, 72 h, DLD-1 cells, read-out: DLD-1 MTS 72 hr at 10 μM
[2] = Homo sapiens, KATO III, 72 h, KATO III cells, read-out: KATO III MTS 72 hr at 10 μM
[3] = Homo sapiens, MDA-MB-231, 72 h, MDA-MB-231 cells, read-out: MDA-MB-231 MTS 72 hr at 10 μM
[4] = Homo sapiens, NCI-H1299, 72 h, NCI-H1299 cells, read-out: NCI-H1299 MTS 72 hr at 10 μM
[5] = PaCa-2, 72 h, PACA-2 cells, read-out: PACA-2 MTS 72 hr at 10 μM

Row | SMILES | inhibition at 10 µM [1] | inhibition at 10 µM [2] | inhibition at 10 µM [3] | inhibition at 10 µM [4] | inhibition at 10 µM [5]
1 | Nc1nc(NC2Cc3ccccc3N(S(=O)(=O)c3cccc(Cl)c3Cl)C2)c2cn[nH]c2n1 (centres unmarked) [Compound 57, N4-(1-(2,3-dichlorophenylsulfonyl)-1,2,3,4-tetrahydroquinolin-3-yl)-1H-pyrazolo[3,4-d]pyrimidine-4,6-diamine] | < 50% | < 50% | < 50% | < 50% | < 50%
2 | Nc1nc(NC2Cc3ccccc3N(S(=O)(=O)c3ccc(-c4ccc(Cl)cc4)cc3)C2)c2cn[nH]c2n1 (centres unmarked) [Compound 75, N4-(1-(4′-chlorobiphenyl-4-ylsulfonyl)-1,2,3,4-tetrahydroquinolin-3-yl)-1H-pyrazolo[3,4-d]pyrimidine-4,6-diamine] | > 79% | > 79% | > 79% | 50 to 79% | > 79%
3 | Nc1nc(NC2Cc3ccccc3N(S(=O)(=O)c3ccc(NC(=O)Nc4cc(F)cc(C(F)(F)F)c4)cc3)C2)c2cn[nH]c2n1 (centres unmarked) [Compound 197, 1-[4-({3-[(6-amino-1H-pyrazolo[3,4-d]pyrimidin-4-yl)amino]-3,4-dihydroquinolin-1(2H)-yl}sulfonyl)phenyl]-3-[3-fluoro-5-(trifluoromethyl)phenyl]urea] | > 79% | > 79% | > 79% | > 79% | > 79%
4 | CC1(C(=O)N2CC(Nc3nc(N)nc4[nH]ncc34)Cc3ccccc32)CCCCC1 (centres unmarked) [Compound 96, (3-(6-amino-1H-pyrazolo[3,4-d]pyrimidin-4-ylamino)-3,4-dihydroquinolin-1(2H)-yl)(1-methylcyclohexyl)methanone] | < 50% | < 50% | < 50% | < 50% | < 50%
5 | COc1cccc(CN2CC(Nc3nc(N)nc4[nH]ncc34)Cc3ccccc32)c1F (centres unmarked) [Compound 137, N4-[1-(2-fluoro-3-methoxybenzyl)-1,2,3,4-tetrahydroquinolin-3-yl]-1H-pyrazolo[3,4-d]pyrimidine-4,6-diamine] | > 79% | > 79% | > 79% | > 79% | > 79%
6 | Nc1nc(NC2Cc3ccccc3N(S(=O)(=O)c3ccc(C(F)(F)F)cc3Cl)C2)c2cn[nH]c2n1 (centres unmarked) [Compound 74, N4-(1-(2-chloro-4-(trifluoromethyl)phenylsulfonyl)-1,2,3,4-tetrahydroquinolin-3-yl)-1H-pyrazolo[3,4-d]pyrimidine-4,6-diamine] | < 50% | < 50% | < 50% | < 50% | < 50%
7 | Nc1nc(NC2Cc3ccccc3N(S(=O)(=O)c3ccsc3)C2)c2cn[nH]c2n1 (centres unmarked) [Compound 67, N4-(1-(thiophen-3-ylsulfonyl)-1,2,3,4-tetrahydroquinolin-3-yl)-1H-pyrazolo[3,4-d]pyrimidine-4,6-diamine] | < 50% | < 50% | < 50% | < 50% | < 50%
8 | Nc1nc(NC2Cc3ccccc3N(C(=O)c3ccc(C(F)(F)F)c(F)c3)C2)c2cn[nH]c2n1 (centres unmarked) [Compound 100, (3-(6-amino-1H-pyrazolo[3,4-d]pyrimidin-4-ylamino)-3,4-dihydroquinolin-1(2H)-yl)(3-fluoro-4-(trifluoromethyl)phenyl)methanone] | < 50% | < 50% | < 50% | < 50% | < 50%
9 | Nc1nc(NC2Cc3ccccc3N(C(=O)c3c(F)cc(F)cc3F)C2)c2cn[nH]c2n1 (centres unmarked) [Compound 89, (3-(6-amino-1H-pyrazolo[3,4-d]pyrimidin-4-ylamino)-3,4-dihydroquinolin-1(2H)-yl)(2,4,6-trifluorophenyl)methanone] | < 50% | < 50% | < 50% | < 50% | < 50%
10 | Nc1nc(NC2Cc3ccccc3N(C(=O)c3cccs3)C2)c2cn[nH]c2n1 (centres unmarked) [Compound 79, (3-(6-amino-1H-pyrazolo[3,4-d]pyrimidin-4-ylamino)-3,4-dihydroquinolin-1(2H)-yl)(thiophen-2-yl)methanone] | > 79% | > 79% | 50 to 79% | < 50% | > 79%
11 | Nc1nc(NC2Cc3ccccc3N(Cc3cccc(Oc4cc(Cl)cc(Cl)c4)c3)C2)c2cn[nH]c2n1 (centres unmarked) [Compound 154, N4-{1-[3-(3,5-dichlorophenoxy)benzyl]-1,2,3,4-tetrahydroquinolin-3-yl}-1H-pyrazolo[3,4-d]pyrimidine-4,6-diamine] | > 79% | > 79% | 50 to 79% | 50 to 79% | 50 to 79%
12 | Cc1ccc(S(=O)(=O)N2CCC(Nc3nc(N)nc4[nH]ncc34)Cc3ccccc32)cc1 (centres unmarked) [Compound 177, N4-{1-[(4-methylphenyl)sulfonyl]-2,3,4,5-tetrahydro-1H-1-benzazepin-4-yl}-1H-pyrazolo[3,4-d]pyrimidine-4,6-diamine] | < 50% | < 50% | < 50% | < 50% | < 50%
13 | Cc1cc(C)c(S(=O)(=O)N2CCC(Nc3nc(N)nc4[nH]ncc34)Cc3ccccc32)c(C)c1 (centres unmarked) [Compound 173, N4-[1-(mesitylsulfonyl)-2,3,4,5-tetrahydro-1H-1-benzazepin-4-yl]-1H-pyrazolo[3,4-d]pyrimidine-4,6-diamine] | < 50% | < 50% | < 50% | < 50% | < 50%
14 | Nc1nc(NC2Cc3ccccc3N(S(=O)(=O)c3cccc(NC(=O)NCc4ccccc4)c3)C2)c2cn[nH]c2n1 (centres unmarked) [Compound 210, 1-[3-({3-[(6-amino-1H-pyrazolo[3,4-d]pyrimidin-4-yl)amino]-3,4-dihydroquinolin-1(2H)-yl}sulfonyl)phenyl]-3-benzylurea] | < 50% | < 50% | < 50% | < 50% | < 50%
15 | Nc1nc(NC2Cc3ccccc3N(C(=O)c3c(F)ccc(Cl)c3F)C2)c2cn[nH]c2n1 (centres unmarked) [Compound 104, (3-(6-amino-1H-pyrazolo[3,4-d]pyrimidin-4-ylamino)-3,4-dihydroquinolin-1(2H)-yl)(3-chloro-2,6-difluorophenyl)methanone] | < 50% | < 50% | < 50% | < 50% | < 50%
16 | Nc1nc(NC2Cc3ccccc3N(C(=O)Nc3ccccc3Cl)C2)c2cn[nH]c2n1 (centres unmarked) [Compound 118, 3-(6-amino-1H-pyrazolo[3,4-d]pyrimidin-4-ylamino)-N-(2-chlorophenyl)-3,4-dihydroquinoline-1(2H)-carboxamide] | < 50% | < 50% | < 50% | < 50% | < 50%
